Laboratory results taken from patent US20220251163A1 (Sinopep-Allsino Biopharmaceutical Co., Ltd., priority 2019, published 2022).
Read-outs that look alike come from different tables or passages of the source. *1 amine or outer side, *2 acyl side, *3 side chain or, on linkers, in order; H or OH if unused. Where a SMILES comes first, the peptide text is derived from it. Side-chain parts run from the residue outwards. [ ]: non-standard residue; d: D form. The star is where a group is joined. C18 diacid = O=C(O)CCCCCCCCCCCCCCCCC(=O)*; γGlu = O=C(O)[C@H](CCC(=O)[*:2])N[*:1]; AEEA = NCCOCCOCC(=O)O; Aib = CC(C)(N)C(=O)O

Key:
[1] = Effect on random weight of ob/ob mice after single subcutaneous injection; format: in vivo; details: 100 μg/kg single s.c., X ± s, n = 7
Experimental: The mice in each group received random blood glucose value measurement before (0 h) administration and 2, 4, 6, 10 and 24 h after administration, and then the time for measuring the random blood glucose was adjusted and prolonged to 34, 48, 58 or 72 h after administration according to the blood glucose condition of the mice in each group. Meanwhile, the random weight of the mice in each group before (0 h) administration and 24 h after administration was weighed, and then the random weight of the mice corresponding to the random blood glucose measurement condition 48 or 72 h after administration was weighed.

[2] = target: T1, mGLP-1R (Mus musculus, UniProt O35659); assay: GLP-1R agonist activity, cAMP in transfected HEK293 cells; format: cell-based
T1 construct: expressed in transfected cells; host or cells: HEK293
T1 sequence (O35659 22-463): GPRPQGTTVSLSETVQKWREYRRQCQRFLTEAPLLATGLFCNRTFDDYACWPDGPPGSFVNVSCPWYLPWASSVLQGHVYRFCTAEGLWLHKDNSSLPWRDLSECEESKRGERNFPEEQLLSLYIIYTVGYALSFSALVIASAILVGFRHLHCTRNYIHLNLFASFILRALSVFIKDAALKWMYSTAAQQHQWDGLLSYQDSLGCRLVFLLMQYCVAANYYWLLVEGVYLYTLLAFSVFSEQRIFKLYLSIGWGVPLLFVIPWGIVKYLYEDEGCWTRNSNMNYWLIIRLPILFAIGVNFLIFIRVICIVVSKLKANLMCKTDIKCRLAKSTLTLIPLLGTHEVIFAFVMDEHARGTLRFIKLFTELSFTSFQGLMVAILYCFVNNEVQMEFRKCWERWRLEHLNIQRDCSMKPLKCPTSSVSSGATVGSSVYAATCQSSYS
Experimental: HEK293 cells were co-transfected with cDNA encoding GLP-1R or GIPR. In a test for determining the compound, the cells were inoculated in a 96-well plate 2 h in advance, the polypeptide compound was dissolved with DMSO, and diluted to different multiples with a culture medium containing 0.1% bovine serum albumin and added to the co-transfected cells. After the cells were incubated for 20 min, fluorescence values were determined through microplate reader of an ELISA kit of the Cisbo Company, a standard curve was established to convert the fluorescence values into corresponding cAMP values, and the EC50 value of the compound was calculated through nonlinear regression of Graphpad Prism 5.0 software.

[3] = tested on: ob/ob mice; assay: Blood glucose reducing experiment, single subcutaneous injection in ob/ob mice; format: in vivo; details: 100 μg/kg single s.c.; for Blood glucose at different time after administration, 0 h: 0 h (before administration); for Blood glucose at different time after administration, 0 h / Blood glucose at different time after administration, 2 h / Blood glucose at different time after administration, 4 h / Blood glucose at different time after administration, 6 h / Blood glucose at different time after administration, 10 h / Blood glucose at different time after administration, 24 h / Blood glucose at different time after administration, 34 h / AUC0-24 h Glu: X ± s, n = 7; for AUC0-24 h Glu: blood glucose curve area within 24 h; for AUC0-24 h Glu Decrease rate: versus model control group;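 for all read-outs here: random blood glucose read at each time point, decrease rate given as percentage fall versus the model control group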
Experimental: The mice in each group received random blood glucose value measurement before (0 h) administration and 2, 4, 6, 10 and 24 h after administration, and then the time for measuring the random blood glucose was adjusted and prolonged to 34, 48, 58 or 72 h after administration according to the blood glucose condition of the mice in each group. Meanwhile, the random weight of the mice in each group before (0 h) administration and 24 h after administration was weighed, and then the random weight of the mice corresponding to the random blood glucose measurement condition 48 or 72 h after administration was weighed. The blood glucose decrease rate, the blood glucose curve area (AUC0-24 h Glu) within 24 h after administration and the decrease rate were calculated according to the following formula.
Blood glucose decrease rate=(blood glucose in the model control group−blood glucose in the administration group)/blood glucose in the model control group×100%
BG0, BG2, BG4, BG6, BG10 and BG24 represented the blood glucose values before administration (0 h) and 2, 4, 6, 10 and 24 h after administration respectively.
AUC0-24 h Glu(mmol/Lh·r) decrease rate=(model control group AUC0-24 h Glu−administration group AUC0-24 h Glu/model control group AUC0-24 h Glu×100%
Experiments were carried out twice, at an interval of 8-10 days.

[4] = target: T2, mGIPR (Mus musculus, UniProt Q0P543); assay: GIPR agonist activity, cAMP in transfected HEK293 cells; format: cell-based
T2 construct: expressed in transfected cells; host or cells: HEK293
T2 sequence (Q0P543 19-460): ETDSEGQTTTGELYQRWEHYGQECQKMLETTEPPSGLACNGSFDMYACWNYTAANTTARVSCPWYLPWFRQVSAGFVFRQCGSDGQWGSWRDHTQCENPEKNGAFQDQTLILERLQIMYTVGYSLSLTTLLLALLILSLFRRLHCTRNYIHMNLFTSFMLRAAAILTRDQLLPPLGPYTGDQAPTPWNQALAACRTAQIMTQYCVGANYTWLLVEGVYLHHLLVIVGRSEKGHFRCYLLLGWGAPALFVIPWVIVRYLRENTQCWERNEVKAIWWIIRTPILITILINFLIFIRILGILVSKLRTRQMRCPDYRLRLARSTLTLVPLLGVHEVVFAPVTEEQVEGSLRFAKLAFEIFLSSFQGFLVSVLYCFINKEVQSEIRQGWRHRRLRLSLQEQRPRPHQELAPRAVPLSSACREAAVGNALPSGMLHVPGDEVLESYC
Experimental: HEK293 cells were co-transfected with cDNA encoding GLP-1R or GIPR. In a test for determining the compound, the cells were inoculated in a 96-well plate 2 h in advance, the polypeptide compound was dissolved with DMSO, and diluted to different multiples with a culture medium containing 0.1% bovine serum albumin and added to the co-transfected cells.

Row | SMILES | Changes of random body weight at different time after administration, 0 h [1] | Random body weight at different time after administration, 0 h [1] | Changes of random body weight at different time after administration, 24 h [1] | Random body weight at different time after administration, 24 h [1] | Changes of random body weight at different time after administration, 48 h [1] | Random body weight at different time after administration, 48 h [1] | Blood glucose at different time after administration, 0 h [3] | Decrease rate of blood glucose at different time after administration, 2 h [3] | Blood glucose at different time after administration, 2 h [3] | Decrease rate of blood glucose at different time after administration, 4 h [3] | Blood glucose at different time after administration, 4 h [3] | Decrease rate of blood glucose at different time after administration, 6 h [3] | Blood glucose at different time after administration, 6 h [3] | Decrease rate of blood glucose at different time after administration, 10 h [3] | Blood glucose at different time after administration, 10 h [3] | Decrease rate of blood glucose at different time after administration, 24 h [3] | Blood glucose at different time after administration, 24 h [3] | Decrease rate of blood glucose at different time after administration, 34 h [3] | Blood glucose at different time after administration, 34 h [3] | Decrease rate of blood glucose at different time after administration, 48 h [3] | also measured
1 | CC[C@H](C)[C@H](NC(=O)[C@H](CC(C)C)NC(=O)[C@H](Cc1c[nH]c2ccccc12)NC(=O)[C@H](CCC(N)=O)NC(=O)[C@@H](NC(=O)[C@H](Cc1ccccc1)NC(=O)[C@H](C)NC(=O)[C@H](CCCCNC(=O)COCCOCCNC(=O)COCCOCCNC(=O)CC[C@H](NC(=O)CCCCCCCCCCCCCCCCC(=O)O)C(=O)O)NC(=O)[C@H](CCC(N)=O)NC(=O)[C@H](C)NC(=O)[C@@H](NC(=O)[C@H](CCCCN)NC(=O)[C@H](CC(=O)O)NC(=O)[C@H](CC(C)C)NC(=O)C(C)(C)NC(=O)[C@@H](NC(=O)[C@H](CO)NC(=O)[C@H](Cc1ccc(O)cc1)NC(=O)[C@H](CC(=O)O)NC(=O)[C@H](CO)NC(=O)[C@@H](NC(=O)[C@H](Cc1ccccc1)NC(=O)[C@@H](NC(=O)CNC(=O)[C@H](CCC(=O)O)NC(=O)[C@H](C)NC(=O)[C@@H](N)Cc1ccc(O)cc1)[C@@H](C)O)[C@@H](C)O)[C@@H](C)CC)[C@@H](C)CC)C(C)C)C(=O)N[C@@H](C)C(=O)NCC(=O)NCC(=O)N1CCC[C@H]1C(=O)N[C@@H](CO)C(=O)N[C@@H](CO)C(=O)NCC(=O)N[C@@H](C)C(=O)N1CCC[C@H]1C(=O)N1CCC[C@H]1C(=O)N1CCC[C@H]1C(=O)N[C@@H](CO)C(N)=O [ID NO: 5] (H-YAEGTFTSDYSI[Aib]LDKIAQK([AEEA-AEEA-γGlu-C18 diacid])AFVQWLIAGGPSSGAPPPS-NH2) | 0.0 ± 0.0 g | 43.5 ± 0.9 g | -1.4 ± 0.2 g | 42.0 ± 0.9 g | -0.6 ± 0.2 g | 42.9 ± 0.9 g | 20.57 ± 0.84 mmol/L | 50.8% | 10.12 ± 1.20 mmol/L | 53.6% | 9.54 ± 0.84 mmol/L | 54.2% | 9.43 ± 0.86 mmol/L | 52.6% | 9.76 ± 0.96 mmol/L | 47.1% | 10.89 ± 1.43 mmol/L | 35.2% | 13.33 ± 2.10 mmol/L | 15.8% | EC50 ([2]; HEK293 cells transfected with GLP-1R, cAMP, 20 min incubation, read-out: mGLP-1R EC50): 2.99 pM; AUC0-24 h Glu [3]: 252.25 ± 19.68 mmol·h/L; AUC0-24 h Glu Decrease rate [3]: 50.6%; EC50 ([4]; HEK293 cells transfected with GIPR, cAMP, 20 min incubation, read-out: mGIPR EC50): 6.4 pM
2 | CC[C@H](C)[C@H](NC(=O)[C@H](CCCCN)NC(=O)[C@H](CC(=O)O)NC(=O)[C@H](CC(C)C)NC(=O)[C@H](C)NC(=O)[C@@H](NC(=O)[C@H](CO)NC(=O)[C@H](Cc1ccc(O)cc1)NC(=O)[C@H](CC(=O)O)NC(=O)[C@H](CO)NC(=O)[C@@H](NC(=O)[C@H](Cc1ccccc1)NC(=O)[C@@H](NC(=O)CNC(=O)[C@H](CCC(=O)O)NC(=O)C(C)(C)NC(=O)[C@@H](N)Cc1ccc(O)cc1)[C@@H](C)O)[C@@H](C)O)[C@@H](C)CC)C(=O)N[C@@H](C)C(=O)N[C@@H](CCC(N)=O)C(=O)N[C@@H](CCCCNC(=O)COCCOCCNC(=O)COCCOCCNC(=O)CC[C@H](NC(=O)CCCCCCCCCCCCCCCCC(=O)O)C(=O)O)C(=O)N[C@@H](C)C(=O)N[C@@H](Cc1ccccc1)C(=O)N[C@H](C(=O)N[C@@H](CCC(N)=O)C(=O)N[C@@H](Cc1c[nH]c2ccccc12)C(=O)N[C@@H](CC(C)C)C(=O)N[C@H](C(=O)N[C@@H](C)C(=O)NCC(=O)NCC(=O)N1CCC[C@H]1C(=O)N[C@@H](CO)C(=O)N[C@@H](CO)C(=O)NCC(=O)N[C@@H](C)C(=O)N1CCC[C@H]1C(=O)N1CCC[C@H]1C(=O)N1CCC[C@H]1C(=O)N[C@@H](CO)C(N)=O)[C@@H](C)CC)C(C)C [ID NO: 6] (H-Y[Aib]EGTFTSDYSIALDKIAQK([AEEA-AEEA-γGlu-C18 diacid])AFVQWLIAGGPSSGAPPPS-NH2) | 0.0 ± 0.0 g | 43.5 ± 0.6 g | -1.5 ± 0.2 g | 42.1 ± 0.7 g | -0.8 ± 0.1 g | 42.7 ± 0.7 g | 20.64 ± 0.77 mmol/L | 52.7% | 9.76 ± 0.83 mmol/L | 56.6% | 8.96 ± 0.77 mmol/L | 58.6% | 8.55 ± 0.96 mmol/L | 51.9% | 9.93 ± 0.76 mmol/L | 49.0% | 10.53 ± 1.21 mmol/L | 36.4% | 13.13 ± 2.21 mmol/L | 13.8% | EC50 [2]: 2.58 pM; AUC0-24 h Glu [3]: 246.81 ± 18.95 mmol·h/L; AUC0-24 h Glu Decrease rate [3]: 51.7%; EC50 [4]: 9.29 pM
